“And” between values parts separate entries of the source, which are not always exact repeats. Equal values may be shown once.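 Assay format: 96-well plates, 48-hour exposure. At the GI50, growth is halved.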 The source made the active and inactive calls. Rule as the data show it: active = GI50 up to about 1.1 µM and inactive = higher.
Tests used:
Assay in all cases: growth of human tumour cells (NCI), 48 h
MDA-MB-231 = tested on: MDA-MB-231
BT-549 = tested on: BT-549
UACC-257 = tested on: UACC-257
MDA-MB-435 = tested on: MDA-MB-435
HOP-18 = tested on: HOP-18
M19-MEL = tested on: M19-MEL
SNB-78 = tested on: SNB-78
DLD-1 = tested on: DLD-1
HOP-92 = tested on: HOP-92
DMS-273 = tested on: DMS-273
RPMI-8226 = tested on: RPMI-8226
DU-145 = tested on: DU-145
DMS-114 = tested on: DMS-114
MDA-N = tested on: MDA-N
Hs-578T = tested on: Hs-578T
NCI-H522 = tested on: NCI-H522
LXFL 529 = tested on: LXFL 529
T47D = tested on: T47D
RXF 393 = tested on: RXF 393
PC-3 = tested on: PC-3
MCF7 = tested on: MCF7
KM-20L2 = tested on: KM-20L2
CAKI-1 = tested on: CAKI-1
XF498 = tested on: XF498
NCI/ADR-RES = tested on: NCI/ADR-RES
HOP-62 = tested on: HOP-62
RXF 631 = tested on: RXF 631
A549 = tested on: A549
HCT-116 = tested on: HCT-116
TK-10 = tested on: TK-10
NCI-H226 = tested on: NCI-H226
SF-539 = tested on: SF-539
786-0 = tested on: 786-0
UACC-62 = tested on: UACC-62
SF-295 = tested on: SF-295
SF-268 = tested on: SF-268
HT-29 = tested on: HT-29
SN12C = tested on: SN12C
A498 = tested on: A498
COLO 205 = tested on: COLO 205
SK-OV-3 = tested on: SK-OV-3
IGROV-1 = tested on: IGROV-1
SW-620 = tested on: SW-620
LOX IMVI = tested on: LOX IMVI
EKVX = tested on: EKVX
OVCAR-4 = tested on: OVCAR-4
Malme-3M = tested on: Malme-3M
SK-MEL-2 = tested on: SK-MEL-2
OVCAR-3 = tested on: OVCAR-3
ACHN = tested on: ACHN
SNB-75 = tested on: SNB-75
SNB-19 = tested on: SNB-19
OVCAR-5 = tested on: OVCAR-5
M14 = tested on: M14
SK-MEL-28 = tested on: SK-MEL-28
NCI-H23 = tested on: NCI-H23
HL-60 = tested on: HL-60
K562 = tested on: K562

Measured: GI50

CN(C)CCNC(=O)c1cccc2cc([N+](=O)[O-])ccc12
active: UACC-257 0.243 µM | HOP-18 0.697 µM | M19-MEL 0.279 µM | SNB-78 0.22 µM | DLD-1 0.217 µM | HOP-92 0.249 µM | DMS-273 0.123 µM | RPMI-8226 183 nM and 262 nM | DMS-114 0.217 µM | NCI-H522 0.685 µM | LXFL 529 0.271 µM | RXF 393 0.0649 µM | PC-3 0.76 µM | MCF7 0.608 µM | KM-20L2 0.111 µM | CAKI-1 0.519 µM | XF498 0.252 µM
inactive: MDA-MB-231 1.34 µM | BT-549 3.56 µM | MDA-MB-435 2.23 µM | DU-145 2.86 µM | MDA-N 1.98 µM | Hs-578T 1.46 µM | T47D 2.79 µM | NCI/ADR-RES 1.39 µM

O=C(N/N=C/c1cc(-c2ccccc2Cl)c(-c2ccccc2Cl)o1)c1ccncc1
inactive: HOP-62 > 100 µM | UACC-257 > 100 µM | RXF 631 > 100 µM | A549 > 100 µM | HCT-116 > 100 µM | TK-10 > 100 µM | NCI-H226 > 100 µM | M19-MEL > 100 µM | SF-539 > 100 µM | 786-0 > 100 µM | UACC-62 > 100 µM | SF-295 > 100 µM | DLD-1 > 100 µM | SF-268 > 100 µM | HT-29 80.5 µM | HOP-92 > 100 µM | RPMI-8226 23.6 µM | SN12C > 100 µM | A498 > 100 µM | COLO 205 > 100 µM | SK-OV-3 > 100 µM | IGROV-1 > 100 µM | DMS-114 87.9 µM | SW-620 > 100 µM | LOX IMVI > 100 µM | NCI-H522 83.6 µM | LXFL 529 96.6 µM | EKVX > 100 µM | RXF 393 > 100 µM | OVCAR-4 > 100 µM | Malme-3M > 100 µM | SK-MEL-2 > 100 µM | KM-20L2 > 100 µM | OVCAR-3 43.9 µM | ACHN > 100 µM | SNB-75 81.7 µM | SNB-19 > 100 µM | OVCAR-5 > 100 µM | CAKI-1 > 100 µM | M14 > 100 µM | SK-MEL-28 > 100 µM | NCI-H23 > 100 µM | XF498 > 100 µM | HL-60 89.7 µM | K562 > 10 µM
